In ChEMBL document CHEMBL1909294, “Translating clinical findings into knowledge in drug safety evaluation--drug induced liver injury prediction system (DILIps)” (PLoS Comput Biol, 2011):

Key:
Hepatotoxicity [1] = system: Hepatotoxicity;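 for HepSE Combined Scores: combined hepatic side effect score as listed in the training data of the Drug Induced Liver Injury Prediction System (DILIps)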;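 for HepSE bilirubinemia: bilirubinemia hepatic side effect score drawn from the DILIps training data, a prediction system for drug-induced liver injury; call rule not given here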;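 for HepSE cirrhosis: cirrhosis hepatic side effect score taken from the DILIps (drug-induced liver injury prediction) training set; call rule not given here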;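 for HepSE jaundice: Jaundice-related hepatic side-effect score drawn from the training data of the DILIps (drug-induced liver injury prediction system); call rule not given here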;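 for HepSE liver fatty: hepatic side effect score for fatty liver, taken from the DILIps training set for predicting drug-induced liver injury; call rule not given here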;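 for HepSE liver function tests abnormal: hepatic side effect score taken from the DILIps (drug-induced liver injury prediction system) training data, here covering abnormal liver function test findings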
Hepatotoxicity [2] = system: Hepatotoxicity; remark: listed apart in the source;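 for HepSE Combined Scores: combined hepatic side effect score as listed in the training data of the Drug Induced Liver Injury Prediction System (DILIps)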;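 for HepSE bilirubinemia: bilirubinemia hepatic side effect score drawn from the DILIps training data, a prediction system for drug-induced liver injury; call rule not given here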;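 for HepSE cirrhosis: cirrhosis hepatic side effect score taken from the DILIps (drug-induced liver injury prediction) training set; call rule not given here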;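 for HepSE jaundice: Jaundice-related hepatic side-effect score drawn from the training data of the DILIps (drug-induced liver injury prediction system); call rule not given here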;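 for HepSE liver fatty: hepatic side effect score for fatty liver, taken from the DILIps training set for predicting drug-induced liver injury; call rule not given here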;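 for HepSE liver function tests abnormal: hepatic side effect score taken from the DILIps (drug-induced liver injury prediction system) training data, here covering abnormal liver function test findings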
Hepatotoxicity [3] = system: Hepatotoxicity; remark: listed apart in the source;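 for HepSE Combined Scores: combined hepatic side effect score as listed in the training data of the Drug Induced Liver Injury Prediction System (DILIps)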;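 for HepSE bilirubinemia: bilirubinemia hepatic side effect score drawn from the DILIps training data, a prediction system for drug-induced liver injury; call rule not given here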;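 for HepSE cirrhosis: cirrhosis hepatic side effect score taken from the DILIps (drug-induced liver injury prediction) training set; call rule not given here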;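 for HepSE jaundice: Jaundice-related hepatic side-effect score drawn from the training data of the DILIps (drug-induced liver injury prediction system); call rule not given here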;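 for HepSE liver fatty: hepatic side effect score for fatty liver, taken from the DILIps training set for predicting drug-induced liver injury; call rule not given here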;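 for HepSE liver function tests abnormal: hepatic side effect score taken from the DILIps (drug-induced liver injury prediction system) training data, here covering abnormal liver function test findings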
Hepatotoxicity [4] = system: Hepatotoxicity; remark: listed apart in the source;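 for HepSE Combined Scores: combined hepatic side effect score as listed in the training data of the Drug Induced Liver Injury Prediction System (DILIps)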;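 for HepSE bilirubinemia: bilirubinemia hepatic side effect score drawn from the DILIps training data, a prediction system for drug-induced liver injury; call rule not given here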;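 for HepSE cirrhosis: cirrhosis hepatic side effect score taken from the DILIps (drug-induced liver injury prediction) training set; call rule not given here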;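 for HepSE jaundice: Jaundice-related hepatic side-effect score drawn from the training data of the DILIps (drug-induced liver injury prediction system); call rule not given here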;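 for HepSE liver fatty: hepatic side effect score for fatty liver, taken from the DILIps training set for predicting drug-induced liver injury; call rule not given here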;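 for HepSE liver function tests abnormal: hepatic side effect score taken from the DILIps (drug-induced liver injury prediction system) training data, here covering abnormal liver function test findings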
Hepatotoxicity [5] = system: Hepatotoxicity; remark: listed apart in the source
Hepatotoxicity [6] = system: Hepatotoxicity; remark: listed apart in the source
Hepatotoxicity [7] = system: Hepatotoxicity; remark: listed apart in the source
Hepatotoxicity [8] = system: Hepatotoxicity; remark: listed apart in the source
Hepatotoxicity [9] = system: Hepatotoxicity; remark: listed apart in the source
Hepatotoxicity [10] = system: Hepatotoxicity; remark: listed apart in the source
Hepatotoxicity [11] = system: Hepatotoxicity; remark: listed apart in the source
Hepatotoxicity [12] = system: Hepatotoxicity; remark: listed apart in the source
Hepatotoxicity [13] = system: Hepatotoxicity; remark: listed apart in the source
Hepatotoxicity [14] = system: Hepatotoxicity; remark: listed apart in the source

Compound | HepSE_cirrhosis (Hepatotoxicity [1]) | HepSE_liver fatty (Hepatotoxicity [2]) | HepSE_Combined Scores (Hepatotoxicity [3]) | HepSE_bilirubinemia (Hepatotoxicity [4]) | HepSE_jaundice (Hepatotoxicity [5]) | HepSE_hepatitis (Hepatotoxicity [6]) | HepSE_liver function tests abnormal (Hepatotoxicity [7]) | HepSE_hepatomegaly (Hepatotoxicity [8]) | HepSE_hepatic failure (Hepatotoxicity [9]) | HepSE_cholelithiasis (Hepatotoxicity [10]) | HepSE_elevated liver function tests (Hepatotoxicity [11]) | HepSE_hepatic necrosis (Hepatotoxicity [12]) | HepSE_cholecystitis (Hepatotoxicity [13]) | HepSE_liver disease (Hepatotoxicity [14])
C[C@]12C=CC(=O)C=C1CC[C@@H]1[C@@H]2C(=O)C[C@@]2(C)[C@H]1CC[C@]2(O)C(=O)CO [PREDNISONE] | 0 | 0 | 0 | 0 | 0 | 0 | 0 | 0 | 0 | 0 | 0 | 0 | 0 | 0
COc1cc(NC(C)CCCN)c2ncccc2c1 (stereo unspecified) [PRIMAQUINE] | 0 | 0 | 0 | 0 | 0 | 0 | 0 | 0 | 0 | 0 | 0 | 0 | 0 | 0
CCC1(c2ccccc2)C(=O)NCNC1=O [PRIMIDONE] | 0 | 0 | 0 | 0 | 0 | 0 | 0 | 0 | 0 | 0 | 0 | 0 | 0 | 0
CCCN(CCC)S(=O)(=O)c1ccc(C(=O)O)cc1 [PROBENECID] | 0 | 0 | 1 | 0 | 0 | 0 | 0 | 0 | 0 | 0 | 0 | 1 | 0 | 0
CCN(CC)CCNC(=O)c1ccc(N)cc1 [PROCAINAMIDE] | 0 | 0 | 2 | 0 | 0 | 0 | 0 | 1 | 1 | 0 | 0 | 0 | 0 | 0
CCN(CC)CCOC(=O)c1ccc(N)cc1 [PROCAINE] | 0 | 0 | 0 | 0 | 0 | 0 | 0 | 0 | 0 | 0 | 0 | 0 | 0 | 0
CNNCc1ccc(C(=O)NC(C)C)cc1 [PROCARBAZINE] | 0 | 0 | 1 | 0 | 1 | 0 | 0 | 0 | 0 | 0 | 0 | 0 | 0 | 0
CN1CCN(CCCN2c3ccccc3Sc3ccc(Cl)cc32)CC1 [PROCHLORPERAZINE] | 0 | 0 | 1 | 0 | 1 | 0 | 0 | 0 | 0 | 0 | 0 | 0 | 0 | 0
OC(CCN1CCCC1)(c1ccccc1)C1CCCCC1 (stereo unspecified) [PROCYCLIDINE] | 0 | 0 | 0 | 0 | 0 | 0 | 0 | 0 | 0 | 0 | 0 | 0 | 0 | 0
